According to publication PMC11840923, “Kinetic and Thermodynamic Characterization of Human 4-Oxo-L-proline Reductase Catalysis” (Biochemistry, 2025):

Columns and labels:
[1] = molecular target: T1, 4-oxo-L-proline reductase (HsBDH2) (Homo sapiens, UniProt Q9BUT1); assay: ITC at […] °C, pH […] ([…] stoichiometry); also DSF and stopped-flow koff; assay type: binding
T1 construct: gene BDH2

[2] = molecular target: T1, 4-oxo-L-proline reductase (HsBDH2); assay: ITC at […] °C, pH […] (number of sites fixed at one); also DSF; assay type: binding

T1 sequence (Q9BUT1 whole entry): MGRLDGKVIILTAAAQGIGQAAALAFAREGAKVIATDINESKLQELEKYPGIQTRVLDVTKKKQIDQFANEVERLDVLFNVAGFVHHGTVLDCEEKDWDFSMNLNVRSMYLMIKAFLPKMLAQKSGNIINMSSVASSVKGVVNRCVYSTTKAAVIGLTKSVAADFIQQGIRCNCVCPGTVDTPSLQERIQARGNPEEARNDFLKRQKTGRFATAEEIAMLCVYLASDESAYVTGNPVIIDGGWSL

Kd [1] | Kd [2] | SMILES
0.48 µM |  | NC(=O)C1=CN([C@@H]2O[C@H](COP(=O)(O)OP(=O)(O)OC[C@H]3O[C@@H](n4cnc5c(N)ncnc54)[C@H](O)[C@@H]3O)[C@@H](O)[C@H]2O)C=CC1 [NADH]
 | 29 µM | NC(=O)c1ccc[n+]([C@@H]2O[C@H](COP(=O)([O-])OP(=O)(O)OC[C@H]3O[C@@H](n4cnc5c(N)ncnc54)[C@H](O)[C@@H]3O)[C@@H](O)[C@H]2O)c1 [NAD^+]
